According to US7846959B2, “Raf modulators and methods of use” (Exelixis, Inc., priority 2004, dated 2010):
Where two headings read alike, the source gives them in different places.

Columns and labels:
[1] = target: c-Raf (Homo sapiens, UniProt P04049); assay: Luciferase-coupled chemiluminescence kinase assay (ATP consumption), c-Raf; type: biochemical
How it was run: (§1)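 Read-out: percent ATP consumed, quantified by luciferase/luciferin chemiluminescence after the kinase step. ATP consumption was held at 25-60%. Kinase ([…]) plus compound were preincubated 30 min at RT in Tris pH 7.5 buffer with MgCl2, Triton and DTT, then reacted with ATP for 3 h.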

[2] = target: B-Raf (Homo sapiens, UniProt P15056); assay: Luciferase-coupled chemiluminescence kinase assay (ATP consumption), B-Raf; type: biochemical
B-Raf, sequence (P15056 whole entry): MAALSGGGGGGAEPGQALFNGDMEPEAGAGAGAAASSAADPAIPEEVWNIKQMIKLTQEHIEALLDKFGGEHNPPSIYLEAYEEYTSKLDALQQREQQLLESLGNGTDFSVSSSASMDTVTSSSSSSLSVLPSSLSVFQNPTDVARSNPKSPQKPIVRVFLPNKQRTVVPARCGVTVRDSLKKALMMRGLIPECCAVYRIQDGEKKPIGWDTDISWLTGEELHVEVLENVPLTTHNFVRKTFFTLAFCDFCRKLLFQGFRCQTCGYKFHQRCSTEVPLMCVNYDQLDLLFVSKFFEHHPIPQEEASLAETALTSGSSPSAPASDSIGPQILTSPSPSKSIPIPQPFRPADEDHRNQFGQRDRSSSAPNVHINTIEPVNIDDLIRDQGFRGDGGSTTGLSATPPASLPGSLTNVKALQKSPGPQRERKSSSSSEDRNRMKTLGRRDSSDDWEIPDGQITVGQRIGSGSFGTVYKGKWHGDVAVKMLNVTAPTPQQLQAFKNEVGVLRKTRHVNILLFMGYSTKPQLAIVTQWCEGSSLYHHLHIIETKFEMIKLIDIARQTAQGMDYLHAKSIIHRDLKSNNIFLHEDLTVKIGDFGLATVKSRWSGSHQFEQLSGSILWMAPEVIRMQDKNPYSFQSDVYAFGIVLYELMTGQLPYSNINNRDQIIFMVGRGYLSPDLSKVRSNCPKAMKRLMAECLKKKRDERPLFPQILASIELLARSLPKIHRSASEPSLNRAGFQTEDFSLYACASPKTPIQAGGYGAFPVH
How it was run: as §1

[3] = read-out: cRaf-1 (inhibition indicated as IC50)
[4] = read-out: bRaf (inhibition indicated as IC50)

c-Raf, sequence (P04049 whole entry): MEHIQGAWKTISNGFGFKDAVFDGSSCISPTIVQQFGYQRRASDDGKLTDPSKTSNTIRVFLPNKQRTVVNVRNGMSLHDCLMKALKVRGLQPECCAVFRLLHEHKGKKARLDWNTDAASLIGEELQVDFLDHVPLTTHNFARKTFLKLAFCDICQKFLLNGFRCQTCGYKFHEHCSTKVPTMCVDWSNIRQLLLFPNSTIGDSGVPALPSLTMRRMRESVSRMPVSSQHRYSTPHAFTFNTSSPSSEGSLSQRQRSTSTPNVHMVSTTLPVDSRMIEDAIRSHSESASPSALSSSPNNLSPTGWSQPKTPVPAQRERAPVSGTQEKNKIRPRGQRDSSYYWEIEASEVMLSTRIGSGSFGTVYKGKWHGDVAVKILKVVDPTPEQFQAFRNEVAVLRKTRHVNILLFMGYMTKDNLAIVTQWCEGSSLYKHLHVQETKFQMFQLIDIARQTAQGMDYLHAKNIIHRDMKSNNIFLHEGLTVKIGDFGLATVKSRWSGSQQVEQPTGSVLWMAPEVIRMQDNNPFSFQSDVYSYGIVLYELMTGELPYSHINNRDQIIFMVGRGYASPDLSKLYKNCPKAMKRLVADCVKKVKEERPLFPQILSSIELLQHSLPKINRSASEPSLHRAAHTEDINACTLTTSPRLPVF

IC50 ([1]; read-out: cRaf-1 IC50) [µM]	IC50 ([2]; read-out: bRaf IC50) [µM]	IC50 [1, 3] [µM]	IC50 [2, 4] [µM]	Structure (SMILES)
< 0.1	< 0.1			CN1CCN(CCCC(=O)Nc2nc3cc(C4(O)c5ccccc5C(=O)N4Cc4ccccc4)ccc3[nH]2)CC1 (stereo not drawn) [Entry 264, N-{5-[1-hydroxy-3-oxo-2-(phenylmethyl)-2,3-dihydro-1H-isoindol-1-yl]-1H-benzimidazol-2-yl}-4-(4-methylpiperazin-1-yl)butanamide]
		1 to 10	1 to 10	COC(=O)Nc1nc2ccc(C3(O)c4c(Cl)ccc(Cl)c4C(=O)N3c3cccc(Cl)c3F)cc2[nH]1 (stereo not drawn) [Entry 349, methyl {6-[4,7-dichloro-2-(3-chloro-2-fluorophenyl)-1-hydroxy-3-oxo-2,3-dihydro-1H-isoindol-1-yl]-1H-benzimidazol-2-yl}carbamate]
		< 0.1	< 0.1	Cc1ccnc(Nc2nc3cc(C4(O)c5ccccc5C(=O)N4c4cccc(Cl)c4F)ccc3[nH]2)n1 (stereo not drawn) [Entry 385, 2-(3-chloro-2-fluorophenyl)-3-hydroxy-3-{2-[(4-methylpyrimidin-2-yl)amino]-1H-benzimidazol-5-yl}-2,3-dihydro-1H-isoindol-1-one]
		< 0.1	< 0.1	COC(=O)Nc1nc2ccc(C3(C)c4ccccc4C(=O)N3c3cccc(Br)c3)cc2[nH]1 (stereo not drawn) [Entry 320, methyl {6-[2-(3-bromophenyl)-1-methyl-3-oxo-2,3-dihydro-1H-isoindol-1-yl]-1H-benzimidazol-2-yl}carbamate]

Further lines, the molecule ahead of its results:

Structure (SMILES)	IC50 ([1]; read-out: cRaf-1 IC50) [µM]	IC50 ([2]; read-out: bRaf IC50) [µM]	IC50 [1, 3] [µM]	IC50 [2, 4] [µM]
COC(=O)Nc1nc2cc(C3(O)c4ccccc4C(=O)N3c3cccc(N)c3)ccc2[nH]1 (stereo not drawn) [Entry 261, methyl {5-[2-(3-aminophenyl)-1-hydroxy-3-oxo-2,3-dihydro-1H-isoindol-1-yl]-1H-benzimidazol-2-yl}carbamate]	< 0.1	< 0.1		
COC(=O)Nc1nc2cc(C3(O)c4ccccc4C(=O)N3c3cccc(C)c3C)ccc2[nH]1 (stereo not drawn) [Entry 190, methyl {5-[2-(2,3-dimethylphenyl)-1-hydroxy-3-oxo-2,3-dihydro-1H-isoindol-1-yl]-1H-benzimidazol-2-yl}carbamate]	< 0.1	< 0.1		
COC(=O)Nc1nc2ccc(C3(C)c4ccccc4C(=O)N3c3cccc(C(F)(F)F)c3)cc2[nH]1 (stereo not drawn) [Entry 254, methyl (6-{1-methyl-3-oxo-2-[3-(trifluoromethyl)phenyl]-2,3-dihydro-1H-isoindol-1-yl}-1H-benzimidazol-2-yl)carbamate]	< 0.1	< 0.1		
COC(=O)Nc1nc2cc(C3(O)c4ccccc4C(=O)N3c3cccc(OCCN(C)C)c3)ccc2[nH]1 (stereo not drawn) [Entry 159, methyl {5-[2-(3-{[2-(dimethylamino)ethyl]oxy}phenyl)-1-hydroxy-3-oxo-2,3-dihydro-1H-isoindol-1-yl]-1H-benzimidazol-2-yl}carbamate]	0.1 to 1	1 to 10		
O=C1COc2ccc(C3(O)c4ccccc4C(=O)N3C3CCNCC3)cc2N1 (stereo not drawn) [Entry 88, 6-(1-hydroxy-3-oxo-2-piperidin-4-yl-2,3-dihydro-1H-isoindol-1-yl)-2H-1,4-benzoxazin-3(4H)-one]	≥ 10	≥ 10		
COC(=O)Nc1nc2cc(C3(O)c4ccccc4C(=O)N3c3ccc(Cl)c(Cl)c3)ccc2[nH]1 (stereo not drawn) [Entry 177, methyl {5-[2-(3,4-dichlorophenyl)-1-hydroxy-3-oxo-2,3-dihydro-1H-isoindol-1-yl]-1H-benzimidazol-2-yl}carbamate]	< 0.1	< 0.1		
COC(=O)Nc1nc2cc(C3(O)c4ccccc4C(=O)N3c3ccccc3C)ccc2[nH]1 (stereo not drawn) [Entry 144, methyl {5-[1-hydroxy-2-(2-methylphenyl)-3-oxo-2,3-dihydro-1H-isoindol-1-yl]-1H-benzimidazol-2-yl}carbamate]	< 0.1	< 0.1		
COC(=O)Nc1nc2cc(C3(O)c4ccccc4C(=O)N3Cc3nccs3)ccc2[nH]1 (stereo not drawn) [Entry 163, methyl {5-[1-hydroxy-3-oxo-2-(1,3-thiazol-2-ylmethyl)-2,3-dihydro-1H-isoindol-1-yl]-1H-benzimidazol-2-yl}carbamate]	0.1 to 1	0.1 to 1		
